{"source": "patent US20260345612A1", "about": "“THERAPEUTIC COMBINATIONS COMPRISING UBIQUITIN-SPECIFIC-PROCESSING PROTEASE 1 (USP1) INHIBITORS AND PARP1-SELECTIVE INHIBITORS” (KSQ Therapeutics, Inc., priority 2022, published 2026)", "key": {"[1]": {"tested_on": "olaparib resistant patient-derived breast xenograft", "assay": "Anti-tumor activity in olaparib resistant patient-derived breast xenograft model in nude mice", "format": "in vivo, Athymic nude mice", "excerpt": "Example 1: Anti-Tumor Activity of Formula I Co-Crystal in Combination with the Selective PARP1 Inhibitor, AZD5305, in a Patient-Derived Breast Xenograft Model in Nude Mice\nThe USP1 inhibitor employed in the examples is the co-crystal described above in paragraphs and [0143]-[0155]. This co-crystal can be prepared as described in Example 6 of Published PCT WO2022/094096. The Formula I co-crystal is a co-crystal of gentisic acid and 6-(4-cyclopropyl-6-methoxypyrimidin-5-yl)-1-(4-(1-isopropyl-4-(trifluoromethyl)-1H-imidazol-2-yl)benzyl)-1H-pyrazolo[3,4-d]pyrimidine.\nAnti-tumor activity of the USP1 inhibitor of Formula I co-crystal in combination with AZD5305 was evaluated in mice using an olaparib resistant patient-derived breast xenograft model in nude mice, as shown in FIGS. 1A through 1C. 6-9 week old female Athymic nude mice from Envigo were anesthetized, and a 20 mm^3 tumor fragment was placed subcutaneously via incision in the flank. When tumors established to a tumor volume ranging from 63 to 196 mm^3, mice were randomized into groups of 10 and were assigned into the following groups: control, Formula I (100 mg/kg), AZD5305 (10 mg/kg) or Formula I (100 mg/kg) and AZD5305 (10 mg/kg) in combination. […] Body weight and tumor volume were measured twice per week. Tumor volume was calculated as mean and standard error of the mean for each treatment group."}, "[2]": {"tested_on": "breast xenograft tumors with resistance to AZD5305 monotherapy", "assay": "Combination activity in mice with tumors resistant to PARP inhibitors (AZD5305 monotherapy)", "format": "in vivo, Athymic nude mice", "details": "from day 49, 5 mice resistant to AZD5305 monotherapy; Formula I (100 mg/kg) and AZD5305 (10 mg/kg); FIG. 1B", "procedure": "Anti-tumor activity of the USP1 inhibitor of Formula I co-crystal in combination with AZD5305 was evaluated in mice using an olaparib resistant patient-derived breast xenograft model in nude mice, as shown in FIGS. 1A through 1C. 6-9 week old female Athymic nude mice from Envigo were anesthetized, and a 20 mm^3 tumor fragment was placed subcutaneously via incision in the flank. When tumors established to a tumor volume ranging from 63 to 196 mm^3, mice were randomized into groups of 10 and were assigned into the following groups: control, Formula I (100 mg/kg), AZD5305 (10 mg/kg) or Formula I (100 mg/kg) and AZD5305 (10 mg/kg) in combination. Compound was administered via oral gavage once daily for at least 42 days dependent upon the treatment group. Body weight and tumor volume were measured twice per week. Tumor volume was calculated as mean and standard error of the mean for each treatment group."}}}
{"smiles": "CCc1cc2ncc(CN3CCN(c4ccc(C(=O)NC)nc4)CC3)cc2[nH]c1=O", "note": "[AZD5305, 5-[4-[(7-ethyl-6-oxo-5H-1,5-naphthyridin-3-yl)methyl]piperazin-1-yl]-N-methylpyridine-2-carboxamide, reference compound]", "values": [{"measurement": "resistance to AZD5305 monotherapy", "setting": "[1]; AZD5305 (10 mg/kg) monotherapy, oral once daily, day 49, 5 mice", "value": "demonstrated resistance"}]}
{"smiles": "COc1ncnc(C2CC2)c1-c1ncc2cnn(Cc3ccc(-c4nc(C(F)(F)F)cn4C(C)C)cc3)c2n1", "note": "[Formula I, 6-(4-cyclopropyl-6-methoxypyrimidin-5-yl)-1-(4-(1-isopropyl-4-(trifluoromethyl)-1H-imidazol-2-yl)benzyl)-1H-pyrazolo[3,4-d]pyrimidine]", "values": [{"measurement": "anti-tumor activity compared to equivalent doses of the single agents", "setting": "[1]; Formula I (100 mg/kg) and AZD5305 (10 mg/kg), oral gavage once daily, at least 42 days, FIG. 1A", "value": "enhances antitumor activity of AZD5305"}, {"measurement": "tumor volume after addition of Formula I, compared to remaining animals on AZD5305 monotherapy", "setting": "[2]", "value": "decrease in tumor volume"}]}
